Earlier results, collected in patent US20170252311A1, “SPHINGOSINE KINASE INHIBITORS AND CERAMIDE FOR MAINTENANCE THERAPY OF GLIOBLASTOMA” (SignPath Pharma Inc., priority 2016, published 2017).
Where two headings read alike, the source gives them in different places. Each block holds one compound with its values, some of them ahead of it.

How the values were obtained:
[1] = system: GTP cyclohydrolase (GTPCH); conditions: C6 glioma cell line
[2] = system: SK (sphingosine kinase); conditions: arrow down = decrease, arrow up = increase (not defined in patent)
[3] = system: Cer Syn (ceramide synthase)
[4] = system: JC mouse mammary adenocarcinoma cell line
[5] = system: JC mammary adenocarcinoma cells; conditions: syngeneic BALB/c mouse solid tumor model of JC cells
[6] = system: U98G cell line
[7] = system: U251MG, D54MG cell lines
[8] = system: U118MG cell line
[9] = system: U87MG, U1242MG, M059K cell lines; conditions: in all three lines
[10] = system: tumor; conditions: single agent
[11] = system: xenograft prostate cancer models
[12] = system: prostate cancer cell lines and TRAMP-C2 xenografts
[13] = target: T1, Acid Cer (Acid ceramidase) (Homo sapiens, UniProt Q13510)
T1 sequence (Q13510 22-395): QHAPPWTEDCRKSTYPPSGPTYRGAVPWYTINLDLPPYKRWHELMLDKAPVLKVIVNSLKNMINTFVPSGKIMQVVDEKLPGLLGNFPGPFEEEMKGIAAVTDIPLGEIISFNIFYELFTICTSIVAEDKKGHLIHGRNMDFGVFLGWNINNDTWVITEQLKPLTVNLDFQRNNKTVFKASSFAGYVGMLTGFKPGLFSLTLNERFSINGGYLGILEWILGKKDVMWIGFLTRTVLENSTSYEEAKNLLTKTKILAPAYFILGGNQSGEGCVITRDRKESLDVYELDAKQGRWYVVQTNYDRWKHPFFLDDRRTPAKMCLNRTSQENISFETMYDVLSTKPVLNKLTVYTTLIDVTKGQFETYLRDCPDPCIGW

[14] = target: GCS (glucosylceramide synthase) (Homo sapiens, UniProt Q16739)
Sequence of GCS (glucosylceramide synthase) (Q16739 whole entry, species assumed): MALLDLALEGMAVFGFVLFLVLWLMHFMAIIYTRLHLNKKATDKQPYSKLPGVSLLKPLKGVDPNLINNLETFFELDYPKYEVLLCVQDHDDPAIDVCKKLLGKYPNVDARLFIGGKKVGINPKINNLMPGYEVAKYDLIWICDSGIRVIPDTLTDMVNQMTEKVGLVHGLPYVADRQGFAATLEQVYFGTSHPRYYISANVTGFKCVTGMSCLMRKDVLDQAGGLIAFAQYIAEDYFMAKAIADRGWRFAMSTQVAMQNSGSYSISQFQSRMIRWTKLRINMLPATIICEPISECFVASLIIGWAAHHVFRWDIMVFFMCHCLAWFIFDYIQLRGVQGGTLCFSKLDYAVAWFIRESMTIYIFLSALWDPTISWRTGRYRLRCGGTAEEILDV

[15] = system: SMase (Sphingomyelinase)
[16] = system: SM Syn
[17] = system: SPT (serine palmitoyltransferase)
[18] = system: protein kinase C; conditions: selectivity
[19] = system: LN229, U373 cell lines
[20] = system: other serine/threonine kinases; conditions: selectivity
[21] = system: LN229 and U373 glioblastoma cell lines, non-established human GBM6 cells, and GBM xenografts
[22] = system: GBM6 cell lines
[23] = target: SK2 (Homo sapiens, UniProt Q9NRA0); conditions: selectivity
Sequence of SK2 (Q9NRA0 whole entry): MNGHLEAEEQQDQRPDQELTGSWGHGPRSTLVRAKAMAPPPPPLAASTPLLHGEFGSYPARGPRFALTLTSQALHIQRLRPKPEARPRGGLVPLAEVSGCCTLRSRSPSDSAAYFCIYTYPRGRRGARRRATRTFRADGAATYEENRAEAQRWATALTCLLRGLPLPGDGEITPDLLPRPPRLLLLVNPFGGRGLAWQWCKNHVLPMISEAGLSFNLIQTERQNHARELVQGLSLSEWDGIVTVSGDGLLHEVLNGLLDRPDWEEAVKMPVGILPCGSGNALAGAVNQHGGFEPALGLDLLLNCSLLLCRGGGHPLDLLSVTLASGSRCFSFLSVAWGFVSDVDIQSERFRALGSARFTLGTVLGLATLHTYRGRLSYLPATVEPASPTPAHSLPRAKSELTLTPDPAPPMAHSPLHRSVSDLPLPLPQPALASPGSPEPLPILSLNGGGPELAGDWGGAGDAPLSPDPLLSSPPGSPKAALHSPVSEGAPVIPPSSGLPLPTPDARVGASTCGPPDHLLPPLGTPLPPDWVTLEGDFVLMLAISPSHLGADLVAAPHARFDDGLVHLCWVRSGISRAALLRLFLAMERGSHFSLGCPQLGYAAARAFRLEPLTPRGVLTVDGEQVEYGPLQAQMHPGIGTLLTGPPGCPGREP

[24] = system: human leukemic cell lines and acute myelogenous leukemia xenografts; conditions: human leukemic cell lines and AML xenografts
[25] = system: protein kinase B; conditions: selectivity
[26] = system: LN229 intracranial xenografts

SMILES: CCCCCCCCCCCCC/C=C/[C@@H](O)[C@H](CO)N(C)C [N,N-dimethylshingosine]
tumor necrosis factor-α induced GTP cyclohydrolase (GTPCH) activity [1]: Suppressed tumor necrosis

Sphingolipid Enzymes Affected: SK [2]: ↓SK
Sphingolipid Enzymes Affected: Cer Syn [3]: ↑Cer Syn
SMILES: Cc1cn(-c2cc(NC(=O)c3ccc(C)c(Nc4nccc(-c5cccnc5)n4)c3)cc(C(F)(F)F)c2)cn1 [Nilotinib]

SMILES: Oc1ccc(Nc2nc(-c3ccc(Cl)cc3)cs2)cc1 [SKI-II, 4-[4-(4-chloro-phenyl)-thiazol-2-ylamino]-phenol]
anti-tumor activity [4]: anti-tumor activity
anti-tumor activity [5]: especially effective
cell cycle (accumulation of cells at G1) [6]: accumulation of cells at G1.
proliferation [6]: Decreased proliferation. Caused
cancer cell death ([7]; TMZ resistant GBM cell lines U251 and D54MG): promote cancer cell death
activity in cell lines made resistant to TMZ ([7]; U251MG, D54MG): Active in cell lines mde resistant
expression of urokinase plasminogen activator [8]: Blocked
invasiveness [8]: Decreased invasiveness
cellular proliferation ([9]; listed as 2-(p-Hdroxyanilino)-4-(p-chlorophenyl)thiazole): Decreased cellular proliferation
cellular proliferation ([9]; listed as 2-(p-Hydroxyanilino)-4-(p-chlorophenyl)thiazole): significantly decreased the rate of proliferation

SMILES: CCCCCCCCCCCCC/C=C/[C@@H](O)[C@H](CO)[N+](C)(C)C [N,N,N-trimethylsphingosine]
anti-tumor activity alone [10]: did not appear to have significant anti-tumor activity alone

SMILES: CCCCCCCCCCCCCCC[C@H](O)[C@@H](N)CO [safingol, D,L-threodihydrosphingosine]
anti-tumor activity alone [10]: did not appear to have significant anti-tumor activity alone

SMILES: O=C(NCc1ccncc1)C12CC3CC(C1)CC(c1ccc(Cl)cc1)(C3)C2 [ABC294640, 3-(4-chlorophenyl)-adamantane-1-carboxylic acid (pyridin-4-ylmethyl) amide]
cancer growth [11]: significantly blocked cancer growth
cell viability [12]: reduced cell viability
expression of c-myc [12]: decreased expression of c-myc

Sphingolipid Enzymes Affected: Acid Cer [13]: ↓Acid Cer
Sphingolipid Enzymes Affected: GCS [14]: ↑GCS
Sphingolipid Enzymes Affected: SK [2]: ↓SK
Sphingolipid Enzymes Affected: SMase [15]: ↑↓Smase
Sphingolipid Enzymes Affected: SM Syn [16]: ↓SM Syn
SMILES: CCN(CC)CCCC(C)Nc1ccnc2cc(Cl)ccc12 (stereo not drawn) [Chloroquine]

SMILES: O=C(NN=Cc1c(O)ccc2ccccc12)c1cc(-c2ccc3ccccc3c2)n[nH]1 [SKI-I, 5-naphthalen-2-yl-2H-pyrazole-3-carboxylic acid (2-hydroxy-naphthalen-1-ylmethylene)-hydrazide]
anti-tumor activity [4]: anti-tumor activity
anti-tumor activity [5]: anti-tumor activity

Sphingolipid Enzymes Affected: Acid Cer [13]: decreases acid ceramidase
SMILES: CC/C(=C(\c1ccccc1)c1ccc(OCCN(C)C)cc1)c1ccccc1 [tamoxifen]

Sphingolipid Enzymes Affected: SPT [17]: ↑SPT
Sphingolipid Enzymes Affected: SK [2]: ↓SK
Sphingolipid Enzymes Affected: Cer Syn [3]: ↑Cer Syn
SMILES: COc1cc(/C=C/C(=O)CC(=O)/C=C/c2ccc(O)c(OC)c2)ccc1O [Curcumin]

SMILES: O=C1C(=Cc2ccc(O)c(O)c2)Oc2ccccc21 [SKI-V, 2-(3,4-dihydroxy-benzylidene)-benzofuran-3-one]
anti-tumor activity [4]: anti-tumor activity
anti-tumor activity [5]: anti-tumor activity

inhibition of protein kinase C [18]: does not inhibit
inhibition of SK2 [23]: does not inhibit
inhibition of protein kinase B [25]: does not inhibit
SMILES: CCCCCc1ccc(/C=C/[C@H](O)[C@@H](CO)NC)cc1 [SK1-I, (2R,3S,4E)-N-methyl-5-(4′-pentylphenyl)-2-aminopent-4-ene-1,3-diol]
cell growth [19]: Inhibited cell growth
migration [19]: Inhibited
inhibition of other serine/threonine kinases [20]: does not inhibit
apoptosis [21]: prompts apoptosis
protein kinase B (Akt) signaling [21]: inhibits protein kinase B (Akt) signaling
tumor development [21]: suppresses tumor development
cell growth [22]: Reduced cell growth
epidermal growth factor-stimulated phosphorylation of Akt [22]: Reduced
apoptosis [24]: induced apoptosis
tumor growth [24]: blocked tumor growth
angiogenesis [26]: Reduced
apoptosis [26]: Caused apoptosis
tumor growth rate [26]: Reduced tumor growth rate.

Sphingolipid Enzymes Affected: SK [2]: ↓SK
Sphingolipid Enzymes Affected: Cer Syn [3]: ↑Cer Syn
SMILES: Cc1ccc(NC(=O)c2ccc(CN3CCN(C)CC3)cc2)cc1Nc1nccc(-c2cccnc2)n1 [Imatinib]

Sphingolipid Enzymes Affected: Acid Cer [13]: ↓Acid Cer
Sphingolipid Enzymes Affected: GCS [14]: ↑GCS
Sphingolipid Enzymes Affected: SK [2]: ↓SK
Sphingolipid Enzymes Affected: SMase [15]: ↑↓Smase
Sphingolipid Enzymes Affected: SM Syn [16]: ↓SM Syn
SMILES: OC(c1cc(C(F)(F)F)nc2c(C(F)(F)F)cccc12)C1CCCCN1 (stereo not drawn) [Mefloquine]

Sphingolipid Enzymes Affected: SPT [17]: ↑SPT
Sphingolipid Enzymes Affected: SK [2]: ↓SK
Sphingolipid Enzymes Affected: Cer Syn [3]: ↑Cer Syn
SMILES: Oc1ccc(C=Cc2cc(O)cc(O)c2)cc1 [Resveratrol]
